The results in this text go back to patent US11420962B2, “Indene derivatives useful in treating pain and inflammation” (TARO PHARMACEUTICALS INC., priority 2018, dated 2022).

One data set concerns rats (male, Wistar). The data set is described as follows: Rat monosodium iodoacetate-induced osteoarthritis. In kind it is in vivo. Here is the method:
Representative compounds of the invention (i.e., test compounds) were administered to rats (male, Wistar) PO, QD, at 3 or 30 mg/kg, starting on Day 0 through to Day 21 of the study. Osteoarthritis was modeled by intra-articular injection of 3 mg of monosodium iodoacetate (MIA) in the right knee. Knee swelling, paw withdrawal threshold (mechanical allodynia) and the difference in weight bearing were measured on Day 0 (pre-induction) and on Days 3, 7, 14 and 21 post-MIA injection. Tramadol was used as a reference standard.

Data set [1] deals with Rats (male, Sprague-Dawley). As to the kind of experiment: Spinal nerve ligation (neuropathic pain). In kind it is in vivo. To be noted: 10 mg/kg. An excerpt: Rats (male, Sprague-Dawley) were anaesthetized and placed in a prone position and the left paraspinal muscles were separated from the spinous processes at the L6-S2 levels. The L6 transverse process was carefully removed to visually identify the L4-L6 spinal nerves. The left L5 spinal nerves were isolated and tightly ligated with 6-0 silk thread. The skin was sutured to close the open tissue and animals were allowed to recover for 1 week before pain assessment. Basal readings for mechanical allodynia and thermal hyperalgesia were performed using a dynamic plantar aesthesiometer and plantar test surface, respectively, before surgery. On Day 7 following surgery, mechanical allodynia and thermal hyperalgesia were assessed and animals were randomized into treatment groups based on these baseline readings. […] Thermal hyperalgesia and mechanical allodynia were tested at 0, 60 and 120 minutes post administration of compounds on Days 7 and 14.

The subject of a further data set is Rat DRG. The data set is described as follows: Rat dorsal root ganglion excitability response (EFS, Ca2+ transients). It is filed as cell-based. To be noted: Rattus norvegicus; Table 3; electrical field stimulation, Ca5 indicator; read-out: Scoring (EC50, Rat DRG excitability). An outline of the steps: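 Adult rat DRG cells cultured for 2 days were loaded with the Ca5 dye 1 h before electrical field stimulation under four protocols. Compounds were tested at six concentrations (typically top 30 μM, 1:3 steps, duplicate), added either 24 h before or directly before EFS. The read-out was the per-well peak/baseline fluorescence ratio change, with imaging used to check for toxicity.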

For the next data set, the system named is T cells. As to the kind of experiment: T cell proliferation (anti-CD3/anti-CD28 dynabeads, CCK-8). To be noted: Table 4, mouse T cells, 72 hours after dynabeads, read-out: Scoring (IC50, cell proliferation). It is filed as cell-based, mice. Here is the method:
Spleens were obtained from six male, CD-1 outbred mice, approximately 8 weeks old. Cells were harvested under sterile conditions by forcing each spleen though a cell filter (pore size 100 μm diameter). A homogenous cell suspension was obtained by washing the cells in fresh medium and passing cells through a smaller cell filter (pore size 70 μm).
Untouched T cells were isolated using the Pan T cell isolation kit (Miltenyi Biotech). Briefly, cells were counted and incubated with the required volume of antibody cocktail for 5 minutes at 4° C. before addition of microbeads and incubation for 10 minutes at 4° C. Labeled cells were retained in a magnetic column while unlabeled cells (T cells) passed through the column and were retained for use in the assay.
Cell viability was assessed by Trypan Blue exclusion and found to be >99% prior to transfer to plates. Isolated T cells were seeded out in 96 well plates at a density of 50,000 cells per well and allowed to incubate for 60 minutes in a humidified cell culture (37° C., 5% CO2) incubator prior to compound treatment. The media used for this assay (TexMACS, Miltenyi Biotech) was previously optimized for proliferation of T cells in serum free conditions.
Representative compounds of the invention (i.e., test compounds) were prepared as 30 mM stocks in 100% DMSO. Test compounds were initially diluted in media to yield 3 mM stocks before an additional 1:10 dilution in media was performed to yield working stocks of 300 μM (1% DMSO). Subsequent dilutions were performed in media (supplemented with 1% DMSO). When added to the assay plates (1:10 dilution), these yielded final concentrations in the assay plates of in 0.1% DMSO. The reference compound, Cyclosporin A, was prepared in an identical manner as above.
Unstimulated and Stimulated Control wells received an identical volume of TexMACS media/1% DMSO at this time, resulting in a final concentration of 0.1% DMSO across the plate. Mouse anti-CD3/anti-CD28 dynabeads were prepared (following the manufacturers' instructions) in TexMACS media and added to appropriate wells to achieve a final concentration of 1 bead per cell. Unstimulated Control wells then received an identical volume of TexMACS. Plates were centrifuged 72 hours after addition of dynabeads, (300×g for 3 minutes) to pellet the cells and 60% of the supernatant was removed to a fresh plate for analysis by ELISA. After removal of 60% of the supernatant for subsequent ELISA, cell proliferation was assessed using the CCK-8 assay.
Average response by the standard compound, cyclosporin A, was 1 uM.

Data set [2] is described as follows: Metabolism by human liver microsomes. In kind it is in vitro ADME. To be noted: Table 8; 10 µM, in the presence of NADPH, 1 mg/mL protein. An outline of the steps:
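Compound at 10 μM preincubated 10 min at 37 °C with human liver microsomes (1 mg/mL protein), 100 mM Tris HCl pH 7.5; started with 1 mM NADPH, run 60 min. Percent remaining at 60 min versus 0-time by LC-MS/MS analyte/internal-standard ratio, scored in bands.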

For data set [3], the system named is Rats (male, Sprague-Dawley). The data set is described as follows: TNBS colitis assay in rats. To be noted: 10 mg/kg dose. It is filed as in vivo. Here is the method:
TNBS Colitis Assay of Representative Compounds in Rats Rats (male, Sprague-Dawley) were anaesthetized and a solution of TNBS (48 mg/kg) in ethanol, was instilled intra-rectally to induce colitis, 1 h after oral dosing of representative compounds of the invention (i.e., test compounds). Test compounds were dosed PO, QD for 7 days, using prednisolone as a reference standard. […] On Day 7, rats were euthanized and the colon was evaluated for length, weight, wall thickness, ulcer number and length and for the presence of adhesions and strictures. A colonic score was calculated based on the severity of the colonic parameters.

Data set [4] deals with female Sprague-Dawley rats. The data set is described as follows: Cyclophosphamide-induced cystitis in rats (visceral pain). To be noted: 300 mg/kg dose. It is filed as in vivo. Here is the method:
Representative compounds of the invention (i.e., test compounds) were administered to female Sprague-Dawley rats, for four days by oral gavage in 0.9% saline. Two hours after the fourth dose, the rats were challenged by intraperitoneal administration of cyclophosphamide (150 mg/kg). Referred mechanical sensitivity was measured four hours later by applying a series of eight von Frey filaments to the lower abdomen, three times each for 1-2 seconds with a 5 second interval between applications. Responses were scored (zero-no response; one-response, two-response and change of position, and three-response, change of position and licking the site or vocalization), totaled and the percent of maximal possible nociceptive score calculated. Ibuprofen was used as a reference standard.

The test system of a further data set is male Sprague-Dawley rats. As to the kind of experiment: Rat chronic prostatitis/chronic pelvic pain (carrageenan). In kind it is in vivo. To be noted: 300 mg/kg. Here is the method:
Representative compounds of the invention (i.e., test compounds) were administered for 11 days by oral gavage in 0.9% saline (3, 10 or 30 mg/kg QD; 5 mL/kg dose volume) to male Sprague-Dawley rats. Carrageenan-mediated chronic prostatitis/chronic pelvic pain (CP/CPPS) established in rats (10 per group) by administration of an intraprostatic injection of carrageenan (˜12.5 μL/lobe of a 30 mg/mL solution) into both ventral prostate lobes, on Day 0. Referred mechanical sensitivity was measured on Days 0, 1, 3 and 7, 2 hours after test compound, or vehicle (saline) administration, by applying 6 von Frey filaments with increasing forces of 0.16-2 g to the scrotal skin area, 3 times each for 1-2 seconds, with a 5-second interval between applications. Responses were scored (zero-no response; one-reaction of the animal, two-jump, and three-licking the site) and expressed as the nociceptive threshold for each day of assessment. Ibuprofen was used as a reference standard.
According to the above assay, Compound Ia-1 restored nociceptive threshold to 65% of baseline on Day 3 at the 30 mg/kg dose as compared to the reference standard, ibuprofen (300 mg/kg), which restored the threshold to 120% of the baseline.

In data set [5] the test system is Mice (male, C57Bl/6). As to the kind of experiment: Formalin pain assay in mice. To be noted: Table 7; formalin 2.5%, left plantar. It is filed as in vivo. Here is the method:
Mice (male, C57BL/6) were placed singly in a Perspex chamber for approximately 30 min on three successive days to acclimate and thereby reduce stress-induced behaviors. On the fourth day, the experimental animals received a 25 μl injection of 2.5% formalin beneath the left plantar skin using a 29-gauge syringe. […] The total time spent on flinches/licking/biting of the hind paw was recorded by visual observation for every 5 min period/interval for total observation duration of 60 min in two phases, the early phase (0-5 min) and the late phase (15-40 min). Observers were blinded to the treatment group allocation.
For test compounds, the % protection from 0-60 min was used to assess activity. Scoring for the test compounds was as follows: “A” represents a % protection of 81 to 100%, “B” represents a % protection of 61 to 80%, “C” represents a % protection of 31 to 60% and “D” represents a % protection of 0 to 30%.

For data set [6], the system named is Mice (male, C57Bl/6). As to the kind of experiment: Bleomycin lung fibrosis. In kind it is in vivo. The source says: Mice (male, C57BL/6) were randomized into treatment groups and fibrosis was induced by intratracheal administration of bleomycin. Treatment with representative compounds of the invention (i.e., test compounds) or reference standard (pirfenidone) was initiated on Day −1 and administered daily unto Day 7 or Day 21. For groups undergoing bronchoalveolar lavage (BAL), the trachea was cannulated and infused with ice cold Hank's Balanced Salt Solution (HBSS, pH 7.2). The collected lavage fluid was analyzed for cell numbers (total and differential counts) and levels of soluble TGFβ and collagen. For other groups, the lungs were either snap-frozen or formalin-fixed for further analyses.

Turning to `COc1cccc(C2(O)CCCCC2CN(C)C)c1` (stereo not drawn) [tramadol, reference compound], the “reduction difference in weight bearing as compared to the vehicle” value in the data set with rats (male, Wistar) (10 mg/kg) is given as 79%. For the same molecule, the “reduction in knee diameter as compared to the vehicle” value in the data set on rats (male, Wistar) (Day 3, 30 mg/kg) was 11%. In addition, the “overall increase in paw withdrawal threshold as compared to the vehicle” value in [1] turned out to be 77%.
As for `C=C1CC[C@H]2[C@H](CNCc3ccc4c(c3)OC(F)(F)O4)[C@@H]([C@@]3(C)Cc4cn[nH]c4C[C@@H]3CO)CC[C@]12C` [Ia-3, ((5R,6S)-5-((3aS,4R,5S,7aS)-4-((((2,2-difluorobenzo[d][1,3]dioxol-5-yl)methyl)amino)methyl)-7a-methyl-1-methyleneoctahydro-1H-inden-5-yl)-5-methyl-4,5,6,7-tetrahydro-1H-indazol-6-yl)methanol], the EC50 with Rat DRG is 2 to 6 µM. Further, the IC50 in the data set with T cells was under 2 µM. Also, the “Scoring (% of drug remaining after 60 minutes, PDR60)” value in data set [2] is “D (a PDR^60 of 0 to 30%)”.
As for `C=C1CC[C@H]2[C@H](CN)[C@@H]([C@@]3(C)Cc4c(C(F)F)n[nH]c4C[C@@H]3CO)CC[C@]12C` [Ia-30, ((5R,6S)-5-((3aS,4R,5S,7aS)-4-(aminomethyl)-7a-methyl-1-methyleneoctahydro-1H-inden-5-yl)-3-(difluoromethyl)-5-methyl-4,5,6,7-tetrahydro-1H-indazol-6-yl)methanol], the IC50 in the data set with T cells was 6 to 15 µM.
For `C[C@]12C=CC(=O)C=C1CC[C@@H]1[C@@H]2[C@@H](O)C[C@@]2(C)[C@H]1CC[C@]2(O)C(=O)CO` [prednisolone, reference compound], the “reduction of the colonic score” value in data set [3] is 68%.
For `CC(C)Cc1ccc(C(C)C(=O)O)cc1` (stereo not drawn) [ibuprofen, reference compound], the “nociceptive threshold, % of baseline levels” value in data set [4] is listed as 123%. Also, the “nociceptive threshold restored, % of the baseline” value in the data set on male Sprague-Dawley rats was determined as 120%.
Take `C=C1CC[C@H]2[C@H](CN)[C@@H]([C@@]3(C)Cc4c(C)n[nH]c4C[C@@H]3CO)CC[C@]12C` [Ia-32, ((5R,6S)-5-((3aS,4R,5S,7aS)-4-(aminomethyl)-7a-methyl-1-methyleneoctahydro-1H-inden-5-yl)-3,5-dimethyl-4,5,6,7-tetrahydro-1H-indazol-6-yl)methanol]: the half-maximal effective concentration (EC50) with Rat DRG is over 15 µM. Moreover, the IC50 in the data set with T cells lay in the range of 6 to 15 µM. In addition, the “Scoring (% protection from 0-60 min)” value in the data set with Mice (male, C57Bl/6) [5] is “C (a % protection of 31 to 60%)”. Moreover, the “Scoring (% of drug remaining after 60 minutes, PDR60)” value in data set [2] was “B (a PDR^60 of 61 to 80%)”.
Take `C=C1CC[C@H]2[C@H](CN)[C@@H]([C@@]3(C)Cc4c(C(F)(F)F)n[nH]c4C[C@@H]3CO)CC[C@]12C` [Ia-31, ((5R,6S)-5-((3aS,4R,5S,7aS)-4-(aminomethyl)-7a-methyl-1-methyleneoctahydro-1H-inden-5-yl)-5-methyl-3-(trifluoromethyl)-4,5,6,7-tetrahydro-1H-indazol-6-yl)methanol]: the IC50 in the data set with T cells was 2 to 6 µM.
On to `Cc1ccc(=O)n(-c2ccccc2)c1` [pirfenidone, reference compound], for which the “reduction in BAL macrophages” value in the data set with Mice (male, C57Bl/6) [6] (Day 7, 100 mg/kg dose) is on record as 30%. In the data set with Mice (male, C57Bl/6) [6] (Day 14, 100 mg/kg dose), this molecule displayed a reduction in fibrosis of 46%.
As to `CC(C)CCC[C@@H](C)[C@H]1CC[C@H]2[C@H](CN)[C@@H]([C@@]3(C)Cc4cn[nH]c4C[C@@H]3CO)CC[C@]12C` [Ia-6, ((5R,6S)-5-((1R,3aS,4S,5S,7aR)-4-(aminomethyl)-7a-methyl-1-((R)-6-methylheptan-2-yl)octahydro-1H-inden-5-yl)-5-methyl-4,5,6,7-tetrahydro-1H-indazol-6-yl)methanol], in the data set with Rat DRG, the 50% effective concentration (EC50) was in the range of 6 to 15 µM. Besides, the IC50 in the data set on T cells is under 2 µM. The “Scoring (% protection from 0-60 min)” value in the data set with Mice (male, C57Bl/6) [5] is “C (a % protection of 31 to 60%)”. For the same molecule, the “Scoring (% of drug remaining after 60 minutes, PDR60)” value in data set [2] is “A (a PDR^60 of 81 to 100%)”.

Usually EC50 stands for the concentration at which the effect is half-maximal.
